Reference: patent US20250332112A1, “IONIZABLE CATIONIC LIPIDS FOR LIPID NANOPARTICLES” (GENEVANT SCIENCES GMBH, priority 2022, published 2025)

Key:
[1] = Particle characteristics of LNPs containing EGFP mRNA and novel ionizable lipids; format: physicochemical; details: EGFP mRNA LNP 1.6:54.6:32.8:10.9
Description: The lipid solution contains 4 components: a PEG-conjugated lipid, an ionizable lipid, cholesterol, and a phospholipid (e.g., DSPC). Lipid stocks were prepared using the lipid identities and molar ratios as described, to achieve a total concentration of ˜7 mg/mL in 100% ethanol. […] Equal volumes of the lipid and nucleic acid solutions were blended at a flow rate of 400 mL/min through a T-connector, and diluted with ˜4 volumes of PBS, pH 7.4. Formulations were placed in Slide-A-Lyzer dialysis units (MWCO 10,000) and dialyzed overnight against 10 mM Tris, 500 mM NaCl, pH 8 buffer. Following dialysis, the formulations were concentrated to ˜0.6 mg/mL using VivaSpin concentrator units (MWCO 100,000) and dialyzed overnight against 5 mM Tris, 10% sucrose, pH 8 buffer. Formulations were filtered through a 0.2 μm syringe filter (PES membrane). Nucleic acid concentration was determined by the RiboGreen assay. Particle size and polydispersity were determined using a Malvern Nano Series Zetasizer.
LNP formulations containing novel ionizable lipids all produced stable particles with high encapsulation efficiency (Tables 20-23).

[2] = tested on: EGFP expression in the liver; test: EGFP expression in liver after intravenous EGFP mRNA LNP (ELISA); details: 0.5 mg/kg IV, 24 h post-IV administration, BALB/c mice (n = 4)
Description: LNP formulations encapsulating enhanced green fluorescent protein mRNA were injected intravenously at 0.5 mg/kg to female BALB/c mice (6-8 weeks old). On day of injection, the LNP stocks were filtered and diluted to the required dosing concentration with phosphate buffered saline. At 24 hours post-administration, animals were anaesthetized with a lethal dosage of ketamine/xylazine. Liver samples (left lateral lobe) were collected, weighed, and flash frozen in liquid nitrogen. Liver samples were stored in FastPrep® tubes at −80° C. until analyzed for EGFP expression.
Liver homogenates were prepared in cell extraction buffer, diluted, and analyzed for EGFP protein levels using ELISA, according to manufacturer's instructions (Abcam, GFP ELISA Kit).

[3] = Parent ionizable lipid remaining in liver at 24 h after EGFP mRNA LNP (LC-MS); format: in vivo; details: 24 h after IV 0.5 mg/kg EGFP mRNA LNP, female BALB/c mice (n = 4)
Description: Liver tissues were treated with PBS and homogenized with a FastPrep machine, 3 cycles of 5 m/s×15 s. Homogenates from the PBS-treated control animals was pooled and used for standard curve preparation. Samples were extracted into a deep well plate with 250 μL of an internal suitability standard. Plates were centrifuged for 15 min at 4° C. and 2000 rpm. Analysis was performed using an Agilent 6520 QTOF coupled to an Agilent 1290 UHPLC, using reverse-phase LC separation. Quantitation of the ionizable lipid was by MS/MS against a calibration curve spiked into appropriately matched blank matrix. Calibration used a similar class of synthetic lipid as internal standard.
At 24 h post-dose, some treatment groups reported lower levels of novel ionizable lipid in mouse liver compared to the benchmark (Tables 28-31).

Row | SMILES | Final Product % EE ([1]; Table 22) [%] | Final Product PDI ([1]; Table 22) | Final Product Z-avg ([1]; Table 22) [nm] | EGFP ([2]; Table 26) [pg/g liver] | Parent ionizable lipid remaining in liver, Average ([3]; Table 30) [nmol/g liver] | Final Product % EE ([1]; Table 21) [%] | Final Product PDI ([1]; Table 21) | Final Product Z-avg ([1]; Table 21) [nm] | EGFP ([2]; Table 25) [pg/g liver] | Parent ionizable lipid remaining in liver, Average ([3]; Table 29) [nmol/g liver] | further results
1 | CCCCCCCCCCC(CCCCCCC(=O)OC(CCCCCCC)CCCCCCC)N(CCCCCCC(F)(F)C(=O)OC(CCCCCCC)CCCCCCC)C(=O)CCCN(C)C (stereo not shown) [Compound 117, Pentadecan-8-yl 8-(N-(7,7-difluoro-8-oxo-8-(pentadecan-8-yloxy)octyl)-4-(dimethylamino)butanamido)octadecanoate] | 99 | 0.06 | 80 | 3.15E+07 | 49.53 | – | – | – | – | – | –
2 | CCCCCCCCCCON(C(=O)CCCCN(C)C)C(CCCCCCCCCC)CCCCCCC(=O)OCCC(CCCCC)CCCCC (stereo not shown) [Compound 95, 3-Pentyloctyl 8-(N-(decyloxy)-5-(dimethylamino)pentanamido)octadecanoate] | – | – | – | – | – | 96 | 0.08 | 80 | 8.76E+05 | 9.44 | –
3 | CCCCCC/C=C\CCON(C(=O)CCCN(C)C)C(CCCCCCCCCC)CCCCCCC(=O)OCCC(CCCCC)CCCCC (stereo not shown) [Compound 100, 3-Pentyloctyl (Z)-8-(N-(dec-3-en-1-yloxy)-4-(dimethylamino)butanamido)octadecanoate] | – | – | – | – | – | 98 | 0.08 | 72 | 5.98E+05 | 5.03 | –
4 | CCCCCCCCCCC(CCCCCCCC(=O)OCC(CCCCCC)CCCCCCCC)N(CCCCCCCCCC)C(=O)CCN(C)C (stereo not shown) [Compound 119, 2-Hexyldecyl 9-(N-decyl-3-(dimethylamino)propanamido)nonadecanoate] | 97 | 0.09 | 73 | 1.60E+07 | 25.25 | – | – | – | – | – | –
5 | CCCCCCCCCCC(CCCCCCC(=O)OCCC(CCCCCCC)CCCCCCC)N(CCCCCCCCCC)C(=O)CCCCN1CCCC1 (stereo not shown) [Compound 91, 3-Heptyldecyl 8-(N-decyl-5-(pyrrolidin-1-yl)pentanamido)octadecanoate] | – | – | – | – | – | – | – | – | – | – | Final Product % EE ([1]; Table 20): 99%; Final Product PDI ([1]; Table 20): 0.03; Final Product Z-avg ([1]; Table 20): 85 nm; EGFP ([2]; Table 24): 3.15E+07 pg/g liver; Parent ionizable lipid remaining in liver, Average ([3]; Table 28): 18.58 nmol/g liver
6 | CCCCCCCCCCC(CCCCCCC(=O)OCCC(CCCCC)CCCCC)N(CCCCCCCCCC)C(=O)CCCCN1CCCC1 (stereo not shown) [Compound 89, 3-Pentyloctyl 8-(N-decyl-5-(pyrrolidin-1-yl)pentanamido)octadecanoate] | – | – | – | – | – | – | – | – | – | – | Final Product % EE ([1]; Table 20): 99%; Final Product PDI ([1]; Table 20): 0.03; Final Product Z-avg ([1]; Table 20): 83 nm; EGFP ([2]; Table 24): 2.01E+07 pg/g liver; Parent ionizable lipid remaining in liver, Average ([3]; Table 28): 4.32 nmol/g liver
7 | CCCCCCCCCCC(CCCCCCC(=O)OC(CCCCCCCC)CCCCCCCC)N(CCCCCCC(F)(F)C(=O)OC(CCCCCCCC)CCCCCCCC)C(=O)CCCN(C)C (stereo not shown) [Compound 118, Heptadecan-9-yl 8-(N-(7,7-difluoro-8-(heptadecan-9-yloxy)-8-oxooctyl)-4-(dimethylamino)butanamido)octadecanoate] | 98 | 0.06 | 83 | 1.86E+07 | 62.81 | – | – | – | – | – | –
8 | CCCCCCCCCCC(CCCCCCC(=O)OCC(CCCCCC)CCCCCCCC)N(CCCCCCCCCC)C(=O)CCN(C)C (stereo not shown) [Compound 107, 2-Hexyldecyl 8-(N-decyl-3-(dimethylamino)propanamido)octadecanoate] | 98 | 0.06 | 76 | 3.66E+07 | 28.74 | – | – | – | – | – | –
9 | CCCCCCCCCCN(C(=O)CCCN(C)C)C(CCCCCCCCC)CCCCCCC(F)C(=O)OC(CCCCC)CCCCC (stereo not shown) [Compound 112, Undecan-6-yl 9-(N-decyl-4-(dimethylamino)butanamido)-2-fluorooctadecanoate] | 95 | 0.08 | 82 | 4.78E+07 | 1.73 | – | – | – | – | – | –
10 | CCCCCCCCCCN(C(=O)CCCN(C)C)C(CCCCCCCCC)CCCCC(F)(F)C(=O)OCC(CCCCCC)CCCCCCCC (stereo not shown) [Compound 102, 2-Hexyldecyl 7-(N-decyl-4-(dimethylamino)butanamido)-2,2-difluorohexadecanoate] | – | – | – | – | – | 98 | 0.09 | 67 | 1.94E+05 | 5.72 | –
11 | CCCCCCCCCCC(CCCCCCC(=O)OC(CCCCCC)CCCCCC)N(CCCCCCC(F)(F)C(=O)OC(CCCCCC)CCCCCC)C(=O)CCCN(C)C (stereo not shown) [Compound 116, Tridecan-7-yl 8-(N-(7,7-difluoro-8-oxo-8-(tridecan-7-yloxy)octyl)-4-(dimethylamino)-butanamido)octadecanoate] | 98 | 0.09 | 75 | 2.93E+07 | 60.05 | – | – | – | – | – | –
12 | CCCCCCCCCCN(C(=O)CCCN(C)C)C(CCCCCCCCC)CCCCCCC(F)(F)C(=O)OC(CCCCCCCC)CCCCCCCC (stereo not shown) [Compound 104, Heptadecan-9-yl 9-(N-decyl-4-(dimethylamino)butanamido)-2,2-difluorooctadecanoate] | 99 | 0.07 | 74 | 7.36E+06 | 51.14 | – | – | – | – | – | –
13 | CCCCCCCCCCC(CCCCCCC(=O)OCCC(CCCCCC)CCCCCC)N(CCCCCCCCCC)C(=O)CCCCN1CCCC1 (stereo not shown) [Compound 90, 3-Hexylnonyl 8-(N-decyl-5-(pyrrolidin-1-yl)pentanamido)octadecanoate] | – | – | – | – | – | – | – | – | – | – | Final Product % EE ([1]; Table 20): 99%; Final Product PDI ([1]; Table 20): 0.07; Final Product Z-avg ([1]; Table 20): 79 nm; EGFP ([2]; Table 24): 2.12E+07 pg/g liver; Parent ionizable lipid remaining in liver, Average ([3]; Table 28): 13.37 nmol/g liver
14 | CCCCCCCCCCN(C(=O)CCCN(C)C)C(CCCCCCCCC)CCCCC(F)(F)C(=O)OC(CCCCCCCC)CCCCCCCC (stereo not shown) [Compound 110, Heptadecan-9-yl 7-(N-decyl-4-(dimethylamino)butanamido)-2,2-difluorohexadecanoate] | 98 | 0.11 | 67 | 4.01E+07 | 33.07 | – | – | – | – | – | –
15 | CCCCCC/C=C\CCON(C(=O)CCCCN(C)C)C(CCCCCCCCCC)CCCCCCC(=O)OCCC(CCCCC)CCCCC (stereo not shown) [Compound 94, 3-Pentyloctyl (Z)-8-(N-(dec-3-en-1-yloxy)-5-(dimethylamino)pentanamido)octadecanoate] | – | – | – | – | – | 98 | 0.06 | 83 | 1.20E+06 | 6.57 | –
16 | CCCCCC/C=C\CCON(C(=O)CCCCN(C)C)C(CCCCCCCCCC)CCCCCCC(=O)OCCC(CCCCCCC)CCCCCCC (stereo not shown) [Compound 98, 3-Heptyldecyl (Z)-8-(N-(dec-3-en-1-yloxy)-5-(dimethylamino)pentanamido)octadecanoate] | – | – | – | – | – | 99 | 0.06 | 84 | 9.76E+05 | 30.21 | –
17 | CCCCCCCCCCON(C(=O)CCCCN(C)C)C(CCCCCCCCCC)CCCCCCC(=O)OCCC(CCCCCCC)CCCCCCC (stereo not shown) [Compound 99, 3-Heptyldecyl 8-(N-(decyloxy)-5-(dimethylamino)pentanamido)octadecanoate] | – | – | – | – | – | 97 | 0.04 | 86 | 1.05E+06 | 19.93 | –
